Measurements reported in US20070059756A1, “Immunointeractive molecules and their uses in treating subjects suffering from Hev b 5 allergies” (priority 1999, published 2007).

How the values were obtained:
[1] = test system: IL-5; test: IL-5 production by latex specific oligoclonal T cells (ELISA on culture supernatants); assay type: cell-based, human; conditions: for IL-5: supernatant at 48 hours; for secretion of IL-5 (in words): patient 4 T cell line
Method: (§1) Representative stimulatory and non-stimulatory peptides were selected and T cells cultured in triplicate with these peptides. At 48 hours 50 μl of supernatant was harvested from the cultures and IL-5 and IFNγ were assayed by ELISA using paired cytokine antibodies (from Pharmingen Becton Dickinson, USA and Endogen, USA respectively). For this, opaque flat bottom ELISA plates (Nalgene, Nunc International) were coated with 30 μl capture antibody at 2 μg/ml in 0.1 M NaHCO3 pH 8.2 coating buffer overnight at 4° C. After washing three times with PBS/0.5% Tween the wells were blocked with 3% BSA/PBS at room temperature for 2 hours. The plates were washed and 30 μL pooled triplicate culture supernatants added in duplicate. […] Light emission was read immediately on a Lumicount microplate Glow Luminometer (Packard Instrument Company). A standard curve was run each time using known concentrations of standard cytokine samples and the concentrations of IL-S and IFNγ in the culture supernatants calculated accordingly. The lower limit of detection of the IL-5 assay was 20 pg/ml and the lower limit of detection of the IFN-γ assay was 2 pg/ml.

[2] = test system: latex specific T cell lines; test: Oligoclonal T cell proliferation assay (3H-thymidine incorporation); assay type: cell-based, human; set-up: key to Proliferation inducing (+) or non-inducing (−) peptide: Proliferation inducing and non-inducing peptides are indicated by (+) and (−) respectively; Proliferation inducing and non-inducing peptides are indicated by (+) and (−) respectively; conditions: for Oligoclonal proliferative response: 4 day cultures; for donors whose T cells proliferated in response to the peptide: five donors with IgE reactivity to rHev b 5/MBP
Method: Latex specific T cell lines were isolated using our well established methods for the generation of allergen specific oligoclonal T cell populations (O'Hehir et al., 1987). An initial primary culture was performed for each patient to determine the optimal concentration of LAL for stimulation. For this, peripheral blood mononuclear cells (PBMC) separated from heparinised venous blood by density centrifugation (2×10^5/well) were stimulated with LAL over a concentration range 0.03 to 100 μg/ml, with control cultures of PBMC alone or stimulated with tetanus toxoid. All cultures were maintained in complete medium (RPMI-1640, Gibco Life Technologies supplemented with 2 mmol/L L-glutamine, 100 IU/ml penicillin-streptomycin and 5% screened, heat inactivated human AB serum [Sigma]). […] Therefore, to generate T cell lines, PBMC (2.5×10^6/well) were stimulated for 1 week with LAL at a concentration of 20 μg/ml in 24-well tissue culture plates (Costar, USA). After 7 days, lymphoblasts (1×10^6/well) were restimulated for one week with LAL at a concentration of 20 μg/ml in the presence of an equal number of irradiated (3000 rad) autologous PBMC as antigen presenting cells (APC). On days 2 and 4, cultures were supplemented with Lymphocult-T (5% v/v; Biotest Folex, Germany) and fresh medium. At the end of the second week, lymphoblasts were restimulated for one week with rhev b 5/MBP at a concentration of 20 μg/ml as described above. Oligoclonal T cells were recovered, washed and tested in proliferation and cytokine assays (as described below) either fresh or after cryopreservation in liquid nitrogen. We have previously shown that CD4^+ T cells are preferentially expanded in these cultures.
Oligoclonal T cell blasts (5×10^4) were incubated in 96-well round bottom plates (Linbro, ICN Biomedicals, USA) in triplicate with equal numbers of irradiated APC in the presence of LAL at concentrations ranging from 0.03-100 μg/ml, rHev b 5/MBP (10 and 20 μg/ml), MBP (10 and 20 μg/ml), overlapping peptides of the Hev b 5 sequence (10 and 30 μg/ml), Lymphocult-T (10 IU/ml) or PHA (3 μg/ml). Cultures of T cells and APC in the absence of antigen, T cells alone and APC alone in the absence of antigen were included as controls. After 72 hours cultures were pulsed with 1 μCi of ^3H-thymidine (^3HTdR; Du Pont, NEN) and harvested 12-16 hours later. Proliferation as correlated with ^3HTdR incorporation was measured by liquid scintillation spectroscopy. Results are expressed as mean counts per minute (cpm) for triplicate cultures with standard deviation (SD; ±20% for all experiments).

[3] = test system: IFNγ; test: IFNγ production by latex specific oligoclonal T cells (ELISA on culture supernatants); assay type: cell-based, human; conditions: supernatant at 48 hours
Method: as §1

[4] = test system: IgE; conditions: cited from earlier work
[5] = P1 T cell line, peptide 10 μg/ml
[6] = P1 T cell line, peptide 30 μg/ml
[7] = P2 T cell line, peptide 10 μg/ml
[8] = P2 T cell line, peptide 30 μg/ml
[9] = P3 T cell line, peptide 10 μg/ml
[10] = P3 T cell line, peptide 30 μg/ml
[11] = P4 T cell line, peptide 10 μg/ml
[12] = P4 T cell line, peptide 30 μg/ml
[13] = P1 T cell line, antigen 10 μg/ml
[14] = P1 T cell line, antigen 30 μg/ml
[15] = P2 T cell line, antigen 10 μg/ml
[16] = P2 T cell line, antigen 30 μg/ml
[17] = P3 T cell line, antigen 10 μg/ml
[18] = P3 T cell line, antigen 30 μg/ml
[19] = P4 T cell line, antigen 10 μg/ml
[20] = P4 T cell line, antigen 30 μg/ml
[21] = P5 T cell line, antigen 10 μg/ml
[22] = P5 T cell line, antigen 30 μg/ml
[23] = P6 T cell line, antigen 10 μg/ml
[24] = P6 T cell line, antigen 30 μg/ml

Q: Which results are given for “TKETETEAPAAPAEGEKPAE [Hev b 5 (109-128)]”?
A: IL-5 [1, 5]: 0 pg/mL; IL-5 [1, 6]: 69 pg/mL; IL-5/IFNγ ratio [1, 7]: 4; IL-5 [1, 7]: 293 pg/mL; IL-5/IFNγ ratio [1, 8]: 6.1; IL-5 [1, 8]: 595 pg/mL; IL-5/IFNγ ratio [1, 9]: 5.5; IL-5 [1, 9]: 1403 pg/mL; IL-5/IFNγ ratio [1, 10]: 5.3; IL-5 [1, 10]: 1559 pg/mL; IL-5/IFNγ ratio [1, 11]: 166; IL-5 [1, 11]: 166 pg/mL; IL-5/IFNγ ratio [1, 12]: 212; IL-5 [1, 12]: 212 pg/mL; secretion of IL-5 (in words) [1]: secretion of IL-5; Proliferation inducing (+) or non-inducing (−) peptide ([2]; P1 T cell line): 109-128 (−); Oligoclonal proliferative response [2, 13]: 8.2 counts per minute × 10^−3; Oligoclonal proliferative response [2, 14]: 5.6 counts per minute × 10^−3; Proliferation inducing (+) or non-inducing (−) peptide ([2]; P2 T cell line): 109-128 (+); Oligoclonal proliferative response [2, 15]: 36.9 counts per minute × 10^−3; Oligoclonal proliferative response [2, 16]: 42.7 counts per minute × 10^−3; Proliferation inducing (+) or non-inducing (−) peptide ([2]; P3 T cell line): 109-128 (+); Oligoclonal proliferative response [2, 17]: 13.7 counts per minute × 10^−3; Oligoclonal proliferative response [2, 18]: 17.3 counts per minute × 10^−3; Proliferation inducing (+) or non-inducing (−) peptide ([2]; P4 T cell line): 109-128 (+); Oligoclonal proliferative response [2, 19]: 2.3 counts per minute × 10^−3; Oligoclonal proliferative response [2, 20]: 3.0 counts per minute × 10^−3; Oligoclonal proliferative response [2, 21]: 1.3 counts per minute × 10^−3; Oligoclonal proliferative response [2, 22]: 0.9 counts per minute × 10^−3; Oligoclonal proliferative response [2, 23]: 0.9 counts per minute × 10^−3; Oligoclonal proliferative response [2, 24]: 0.6 counts per minute × 10^−3; donors whose T cells proliferated in response to the peptide [2]: three of the five donors; IFNγ [3, 5]: 0 pg/mL; IFNγ [3, 6]: 0 pg/mL; IFNγ [3, 7]: 73 pg/mL; IFNγ [3, 8]: 97 pg/mL; IFNγ [3, 9]: 257 pg/mL; IFNγ [3, 10]: 292 pg/mL; IFNγ [3, 11]: 0 pg/mL; IFNγ [3, 12]: 0 pg/mL

Q: Which results are given for TPEKEEPTAAPAEPEAPAPE [Hev b 5 (46-65)]?
A: IL-5/IFNγ ratio [1, 5]: 172; IL-5 [1, 5]: 344 pg/mL; IL-5/IFNγ ratio [1, 6]: 139.5; IL-5 [1, 6]: 279 pg/mL; IL-5/IFNγ ratio [1, 7]: 3.2; IL-5 [1, 7]: 58 pg/mL; IL-5/IFNγ ratio [1, 8]: 7.6; IL-5 [1, 8]: 408 pg/mL; IL-5/IFNγ ratio [1, 9]: 9.8; IL-5 [1, 9]: 3799 pg/mL; IL-5/IFNγ ratio [1, 10]: 14; IL-5 [1, 10]: 3186 pg/mL; IL-5/IFNγ ratio [1, 11]: 22.4; IL-5 [1, 11]: 561 pg/mL; IL-5/IFNγ ratio [1, 12]: 43.2; IL-5 [1, 12]: 519 pg/mL; secretion of IL-5 (in words) [1]: secretion of IL-5; Proliferation inducing (+) or non-inducing (−) peptide ([2]; P1 T cell line): 46-65 (+); Oligoclonal proliferative response [2, 13]: 21.3 counts per minute × 10^−3; Oligoclonal proliferative response [2, 14]: 19.6 counts per minute × 10^−3; Proliferation inducing (+) or non-inducing (−) peptide ([2]; P2 T cell line): 46-65 (+); Oligoclonal proliferative response [2, 15]: 13.4 counts per minute × 10^−3; Oligoclonal proliferative response [2, 16]: 22.6 counts per minute × 10^−3; Proliferation inducing (+) or non-inducing (−) peptide ([2]; P3 T cell line): 46.65 (+); Oligoclonal proliferative response [2, 17]: 25.8 counts per minute × 10^−3; Oligoclonal proliferative response [2, 18]: 19.2 counts per minute × 10^−3; Proliferation inducing (+) or non-inducing (−) peptide ([2]; P4 T cell line): 46-65 (+); Oligoclonal proliferative response [2, 19]: 4.4 counts per minute × 10^−3; Oligoclonal proliferative response [2, 20]: 5.3 counts per minute × 10^−3; Oligoclonal proliferative response [2, 21]: 4.9 counts per minute × 10^−3; Oligoclonal proliferative response [2, 22]: 5.6 counts per minute × 10^−3; Oligoclonal proliferative response [2, 23]: 1.5 counts per minute × 10^−3; Oligoclonal proliferative response [2, 24]: 1.2 counts per minute × 10^−3; stimulation index ([2]; fifth of five donors (patient 5)): 5.6; stimulation index ([2]; first of five donors with IgE reactivity to rHev b 5/MBP (patient 1)): 5.9; donors whose T cells proliferated in response to the peptide [2]: all five donors; stimulation index ([2]; fourth of five donors (patient 4)): 5.9; stimulation index ([2]; second of five donors (patient 2)): 10.8; stimulation index ([2]; third of five donors (patient 3)): 5.0; IFNγ [3, 5]: 2 pg/mL; IFNγ [3, 6]: 2 pg/mL; IFNγ [3, 7]: 18 pg/mL; IFNγ [3, 8]: 54 pg/mL; IFNγ [3, 9]: 388 pg/mL; IFNγ [3, 10]: 227 pg/mL; IFNγ [3, 11]: 25 pg/mL; IFNγ [3, 12]: 12 pg/mL

B1: Hev b 5: major allergen in natural rubber latex, highly acidic and proline rich protein of Hevea brasiliensis (protein, listed as Hevea brasiliensis)
chain: MASVEVESAATALPKNETPEVTKAEETKTEEPAAPPASEQETADATPEKEEPTAAPAEPEAPAPETEKAEEVEKIEKTEEPAPEADQTTPEEKPAEPEPVAEEEPKHETKETETEAPAAPAEGEKPAEEEKPITEAAETATTEVPVEKTEE
Q: Which results are given for B1?
A: proportion of HCW with latex allergy whose IgE reacts ([4]; HCW): 92%; proportion of spina bifida patients with latex allergy whose IgE reacts ([4]; spina bifida patients): 56%
